Key:
[1] = biological target: BRD4 (BDI_K57-E168) (Homo sapiens (Human), UniProt O60885); assay: TR-FRET bromodomain binding assay, BRD4 first bromodomain; details: His-tagged BD1, Alexa647-labeled probe 100 nM
Description: (§1) A time-resolved fluorescence resonance energy transfer (TR-FRET) assay was used to determine the affinities of compounds of the Examples listed in Table 1 for each bromodomain of BRD4. His-tagged first (BD1: amino acids K57-E168) and second (BD2: amino acids E352-E168) bromodomains of BRD4 were expressed and purified. An Alexa647-labeled BET-inhibitor was used as the fluorescent probe in the assay.
(§2) Compound dilution series were prepared in DMSO via a 3-fold serial dilution from 2.5 mM to 42 nM. Compounds were then diluted 6:100 in assay buffer (20 mM Sodium Phosphate, pH 6.0, 50 mM NaCl, 1 mM Ethylenediaminetetraacetic acid disodium salt dihydrate, 0.01% Triton X-100, 1 mM DL-Dithiothreitol) to yield 3× working solutions. Six microliters (μL) of the working solution was then transferred to white, low-volume assay plates (Costar #3673). A 1.5× assay mixture containing His-tagged bromodomain, Europium-conjugated anti-His antibody (Invitrogen PV5596) and the Alexa-647-conjugated probe molecule was also prepared. Twelve μL of this solution were added to the assay plate to reach a final volume of 18 μL. The final concentration of 1× assay buffer contains 2% DMSO, 50 μM-0.85 nM compound, 8 nM His-tagged bromodomain, 1 nM Europium-conjugated anti-His-tag antibody and 100 nM or 30 nM probe (for BDI or BDII, respectively). After a one-hour incubation at room temperature, TR-FRET ratios were determined using an Envision multilabel plate reader (Ex 340, Em […]).
(§3) TR-FRET data were normalized to the means of 24 no-compound controls (“high”) and 8 controls containing 1 μM un-labeled probe (“low”). Percent inhibition was plotted as a function of compound concentration and the data were fit with the 4 parameter logistic equation to obtain IC50s. Inhibition constants (Ki) were calculated from the IC50s, probe Kd and probe concentration. Typical Z′ values were between 0.65 and 0.75. The minimum significant ratio was determined to evaluate assay reproducibility (Eastwood et al., (2006) J Biomol Screen, 11: 253-261). The MSR was determined to be 2.03 for BDI and 1.93 for BDII, and a moving MSR (last six run MSR overtime) for both BDI and BDII was typically <3.

[2] = biological target: BRD4 (BDII_E352-M457) (Homo sapiens (Human), UniProt O60885); assay: TR-FRET bromodomain binding assay, BRD4 second bromodomain; details: His-tagged BD2, Alexa647-labeled probe 30 nM
Description: as §1, §2, §3

Compound	Ki [1] [nM]	Ki [2] [nM]
CC(C)c1ccc(S(=O)(=O)Nc2cccc(Oc3ccc(S(C)(=O)=O)cc3-c3cn(C)c(=O)c4[nH]ccc34)c2)cc1 [Example 46, N-{3-[2-(6-methyl-7-oxo-6,7-dihydro-1H-pyrrolo[2,3-c]pyridin-4-yl)-4-(methylsulfonyl)phenoxy]phenyl}-4-(propan-2-yl)benzenesulfonamide]	10	1.8
Cn1cc(-c2cc(S(C)(=O)=O)ccc2Oc2cccc(NS(=O)(=O)c3ccc(F)cc3F)c2)c2cc[nH]c2c1=O [Example 47, 2,4-difluoro-N-{3-[2-(6-methyl-7-oxo-6,7-dihydro-1H-pyrrolo[2,3-c]pyridin-4-yl)-4-(methylsulfonyl)phenoxy]phenyl}benzenesulfonamide]	5.9	2.7
Cn1cc(-c2cc(S(C)(=O)=O)ccc2Oc2cccc(NS(=O)(=O)c3cccc(OC(F)F)c3)c2)c2cc[nH]c2c1=O [Example 48, 3-(difluoromethoxy)-N-{3-[2-(6-methyl-7-oxo-6,7-dihydro-1H-pyrrolo[2,3-c]pyridin-4-yl)-4-(methylsulfonyl)phenoxy]phenyl}benzenesulfonamide]	7.8	2.4
Cn1cc(-c2cc(S(C)(=O)=O)ccc2Oc2cccc(NS(=O)(=O)C3CC3)c2)c2cc[nH]c2c1=O [Example 49, N-{3-[2-(6-methyl-7-oxo-6,7-dihydro-1H-pyrrolo[2,3-c]pyridin-4-yl)-4-(methylsulfonyl)phenoxy]phenyl}cyclopropanesulfonamide]	4.4	1
Cc1cccc(S(=O)(=O)Nc2cccc(Oc3ccc(S(C)(=O)=O)cc3-c3cn(C)c(=O)c4[nH]ccc34)c2)c1 [Example 50, 3-methyl-N-{3-[2-(6-methyl-7-oxo-6,7-dihydro-1H-pyrrolo[2,3-c]pyridin-4-yl)-4-(methylsulfonyl)phenoxy]phenyl}benzenesulfonamide]	3.4	1.2
Cn1cc(-c2cc(S(C)(=O)=O)ccc2Oc2cccc(NS(=O)(=O)c3cccc([N+](=O)[O-])c3)c2)c2cc[nH]c2c1=O [Example 51, N-{3-[2-(6-methyl-7-oxo-6,7-dihydro-1H-pyrrolo[2,3-c]pyridin-4-yl)-4-(methylsulfonyl)phenoxy]phenyl}-3-nitrobenzenesulfonamide]	5	3
Cc1cc(F)ccc1S(=O)(=O)Nc1cccc(Oc2ccc(S(C)(=O)=O)cc2-c2cn(C)c(=O)c3[nH]ccc23)c1 [Example 52, 4-fluoro-2-methyl-N-{3-[2-(6-methyl-7-oxo-6,7-dihydro-1H-pyrrolo[2,3-c]pyridin-4-yl)-4-(methylsulfonyl)phenoxy]phenyl}benzenesulfonamide]	2	1.1
Cn1cc(-c2cc(S(C)(=O)=O)ccc2Oc2cccc(NS(=O)(=O)c3ccc(S(C)(=O)=O)cc3)c2)c2cc[nH]c2c1=O [Example 54, N-{3-[2-(6-methyl-7-oxo-6,7-dihydro-1H-pyrrolo[2,3-c]pyridin-4-yl)-4-(methylsulfonyl)phenoxy]phenyl}-4-(methylsulfonyl)benzenesulfonamide]	3.2	1.1
Cn1cc(-c2cc(S(C)(=O)=O)ccc2Oc2cccc(NS(=O)(=O)c3ccccc3C#N)c2)c2cc[nH]c2c1=O [Example 55, 2-cyano-N-{3-[2-(6-methyl-7-oxo-6,7-dihydro-1H-pyrrolo[2,3-c]pyridin-4-yl)-4-(methylsulfonyl)phenoxy]phenyl}benzenesulfonamide]	6.9	2.8
Cn1cc(-c2cc(S(C)(=O)=O)ccc2Oc2cccc(NS(=O)(=O)c3ccc(C#N)cc3)c2)c2cc[nH]c2c1=O [Example 56, 4-cyano-N-{3-[2-(6-methyl-7-oxo-6,7-dihydro-1H-pyrrolo[2,3-c]pyridin-4-yl)-4-(methylsulfonyl)phenoxy]phenyl}benzenesulfonamide]	8.8	3.4
Cn1cc(-c2cc(S(C)(=O)=O)ccc2Oc2cccc(NS(=O)(=O)c3cccc(C#N)c3)c2)c2cc[nH]c2c1=O [Example 57, 3-cyano-N-{3-[2-(6-methyl-7-oxo-6,7-dihydro-1H-pyrrolo[2,3-c]pyridin-4-yl)-4-(methylsulfonyl)phenoxy]phenyl}benzenesulfonamide]	5.3	2.2
Cn1cc(-c2cc(S(C)(=O)=O)ccc2Oc2cccc(NS(=O)(=O)c3ccc(F)cc3Cl)c2)c2cc[nH]c2c1=O [Example 58, 2-chloro-4-fluoro-N-{3-[2-(6-methyl-7-oxo-6,7-dihydro-1H-pyrrolo[2,3-c]pyridin-4-yl)-4-(methylsulfonyl)phenoxy]phenyl}benzenesulfonamide]	4.7	2.4
Cn1cc(-c2cc(S(C)(=O)=O)ccc2Oc2cccc(NCc3cccc(C#N)c3)c2)c2cc[nH]c2c1=O [Example 60, 3-[({3-[2-(6-methyl-7-oxo-6,7-dihydro-1H-pyrrolo[2,3-c]pyridin-4-yl)-4-(methylsulfonyl)phenoxy]phenyl}amino)methyl]benzonitrile]	7.9	2
Cn1cc(-c2cc(S(C)(=O)=O)ccc2Oc2cccc(NCc3ccc(C#N)cc3)c2)c2cc[nH]c2c1=O [Example 61, 4-[({3-[2-(6-methyl-7-oxo-6,7-dihydro-1H-pyrrolo[2,3-c]pyridin-4-yl)-4-(methylsulfonyl)phenoxy]phenyl}amino)methyl]benzonitrile]	3.7	1.3
Cn1cc(-c2cc(S(C)(=O)=O)ccc2Oc2cccc(NCc3ccc(F)cc3)c2)c2cc[nH]c2c1=O [Example 62, 4-[2-{3-[(4-fluorobenzyl)amino]phenoxy}-5-(methylsulfonyl)phenyl]-6-methyl-1,6-dihydro-7H-pyrrolo[2,3-c]pyridin-7-one]	3.1	1.4
CCS(=O)(=O)c1ccc(OCC2CC2(F)F)c(-c2cn(C)c(=O)c3[nH]c(C#CCN(C)C)cc23)c1 (stereo not shown) [Example 63, 4-{2-[(2,2-difluorocyclopropyl)methoxy]-5-(ethylsulfonyl)phenyl}-2-[3-(dimethylamino)prop-1-yn-1-yl]-6-methyl-1,6-dihydro-7H-pyrrolo[2,3-c]pyridin-7-one]	1.3	3.3
COCCNc1cccc(Oc2ccc(S(C)(=O)=O)cc2-c2cn(C)c(=O)c3[nH]ccc23)c1 [Example 64, 4-[2-{3-[(2-methoxyethyl)amino]phenoxy}-5-(methylsulfonyl)phenyl]-6-methyl-1,6-dihydro-7H-pyrrolo[2,3-c]pyridin-7-one]	5.2	3.4
Cn1cc(-c2cc(S(C)(=O)=O)ccc2Oc2cccc(NCC3CCCO3)c2)c2cc[nH]c2c1=O (stereo not shown) [Example 65, 6-methyl-4-[5-(methylsulfonyl)-2-{3-[(tetrahydrofuran-2-ylmethyl)amino]phenoxy}phenyl]-1,6-dihydro-7H-pyrrolo[2,3-c]pyridin-7-one]	6.9	2.1
COc1cccc(CNc2cccc(Oc3ccc(S(C)(=O)=O)cc3-c3cn(C)c(=O)c4[nH]ccc34)c2)c1 [Example 66, 4-[2-{3-[(3-methoxybenzyl)amino]phenoxy}-5-(methylsulfonyl)phenyl]-6-methyl-1,6-dihydro-7H-pyrrolo[2,3-c]pyridin-7-one]	3.8	1.7
Cn1cc(-c2cc(S(C)(=O)=O)ccc2Oc2cccc(NCc3ccccc3F)c2)c2cc[nH]c2c1=O [Example 67, 4-[2-{3-[(2-fluorobenzyl)amino]phenoxy}-5-(methylsulfonyl)phenyl]-6-methyl-1,6-dihydro-7H-pyrrolo[2,3-c]pyridin-7-one]	4.3	2.8
Cn1cc(-c2cc(S(C)(=O)=O)ccc2Oc2cccc(NCc3cccc(F)c3)c2)c2cc[nH]c2c1=O [Example 68, 4-[2-{3-[(3-fluorobenzyl)amino]phenoxy}-5-(methylsulfonyl)phenyl]-6-methyl-1,6-dihydro-7H-pyrrolo[2,3-c]pyridin-7-one]	10	4.7
Cn1cc(-c2cc(S(C)(=O)=O)ccc2Oc2cccc(NCc3cccc(OC(F)(F)F)c3)c2)c2cc[nH]c2c1=O [Example 69, 6-methyl-4-[5-(methylsulfonyl)-2-(3-{[3-(trifluoromethoxy)benzyl]amino}phenoxy)phenyl]-1,6-dihydro-7H-pyrrolo[2,3-c]pyridin-7-one]	4.1	1.6
Cc1ccc(CNc2cccc(Oc3ccc(S(C)(=O)=O)cc3-c3cn(C)c(=O)c4[nH]ccc34)c2)c(C)c1 [Example 70, 4-[2-{3-[(2,4-dimethylbenzyl)amino]phenoxy}-5-(methylsulfonyl)phenyl]-6-methyl-1,6-dihydro-7H-pyrrolo[2,3-c]pyridin-7-one]	16	6.5
